# “Also recorded” adds a separate entry of the source. Where two headings read alike, the source gives them in different places.
# What was measured:
# MCF-7 cells [1] = test: MCF-7 cell proliferation (cell counting); details: 5 days
# ERα LBD = target: T1, ERα LBD (Homo sapiens, UniProt P03372); format: binding; details: 5 μM 2′,3′,4′-THC alone
# T1 construct: Purified ERα LBD containing amino acids 315-545 used by Brzozowski et al; histidine-tag; purchased GenScript
# T1 sequence (P03372 315-545): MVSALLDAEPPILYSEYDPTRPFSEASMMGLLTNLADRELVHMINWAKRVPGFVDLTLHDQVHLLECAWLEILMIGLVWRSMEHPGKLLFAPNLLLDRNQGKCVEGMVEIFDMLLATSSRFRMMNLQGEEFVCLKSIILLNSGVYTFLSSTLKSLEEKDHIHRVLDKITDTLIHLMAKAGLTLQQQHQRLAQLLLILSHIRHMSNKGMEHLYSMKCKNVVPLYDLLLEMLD
# hAR = target: T2, hAR (Homo sapiens, UniProt P10275); test: TAT3-luciferase reporter, U2OS cells cotransfected with hAR; format: cell-based; details: 5 μM + 10 nM dihydrotestosterone, 24 hours
# T2 construct: expressed in transfected cells; host or cells: U2OS
# T2 sequence (P10275 1-920): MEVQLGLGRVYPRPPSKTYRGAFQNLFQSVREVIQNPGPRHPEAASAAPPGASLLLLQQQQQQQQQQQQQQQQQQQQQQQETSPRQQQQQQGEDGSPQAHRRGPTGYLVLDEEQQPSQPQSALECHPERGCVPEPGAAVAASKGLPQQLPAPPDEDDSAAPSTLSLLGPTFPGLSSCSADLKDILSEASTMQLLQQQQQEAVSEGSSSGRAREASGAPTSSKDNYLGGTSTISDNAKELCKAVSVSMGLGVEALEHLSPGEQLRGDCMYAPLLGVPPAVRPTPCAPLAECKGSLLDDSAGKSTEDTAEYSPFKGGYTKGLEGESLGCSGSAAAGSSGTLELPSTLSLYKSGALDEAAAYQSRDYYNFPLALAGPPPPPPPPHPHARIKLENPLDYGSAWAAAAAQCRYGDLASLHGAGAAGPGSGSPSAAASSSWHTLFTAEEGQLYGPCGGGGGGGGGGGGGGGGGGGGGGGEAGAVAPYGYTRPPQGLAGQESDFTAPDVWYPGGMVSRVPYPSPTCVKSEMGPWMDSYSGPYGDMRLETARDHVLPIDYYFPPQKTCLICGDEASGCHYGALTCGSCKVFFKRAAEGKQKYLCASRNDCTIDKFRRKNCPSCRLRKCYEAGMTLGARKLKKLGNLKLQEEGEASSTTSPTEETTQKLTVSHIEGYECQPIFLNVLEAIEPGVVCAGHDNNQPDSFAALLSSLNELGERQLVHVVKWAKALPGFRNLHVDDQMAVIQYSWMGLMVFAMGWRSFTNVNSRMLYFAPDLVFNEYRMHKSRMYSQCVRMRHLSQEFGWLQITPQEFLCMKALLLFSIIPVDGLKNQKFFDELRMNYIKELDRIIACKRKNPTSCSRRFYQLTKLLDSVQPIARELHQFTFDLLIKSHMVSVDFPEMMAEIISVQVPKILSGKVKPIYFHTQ
# MCF-7 cells [2] = test: Flow cytometry of cellular DNA content in MCF-7 cells; format: cell-based, human; details: for IC50: Homo sapiens, MCF7, 24 h
# Description: The cells were then washed with PBS, detached with trypsin and collected by centrifugation. The cell pellets were washed with cold PBS followed by centrifuge at room temperature and re-suspended in 500 μl PBS containing […] propidium iodide, 0.1% of Triton™ X-100, 0.1% of sodium citrate, and 10 μg/ml of RNase. Samples were then run on Cytomics™ FC-500 (Beckman Coulter) in the cell cytometry facility at UC Berkeley and data was analyzed using FlowJo 7.6.5.
# ERα [3] = target: T3, ERα (Homo sapiens, UniProt P03372); test: ERE-tk luciferase transfection assay, U2OS cells cotransfected with ERα; format: cell-based; parameters: expressed in transfected cells; host or cells: U2OS
# Description: (FIG. 1a) Chemical structure of 2′, 3′, 4′-THC. (FIG. 1b) U2OS cells cotransfected with ERE tk-luciferase and ERα (left panel) or ERβ (right panel). After transfection the cells were treated for 24 hours with 10 nM estradiol and 5 μM 2′, 3′, 4′-THC alone or in combination. Cells were lysed and luciferase activity was measured. RLU is relative light units. Error bars are the Mean±SEM. **P≤0.01. […] The total cellular RNA was extracted and real-time PCR for KRT19 mRNA was performed as described in Materials and Methods. […] Error bars are ±SEM. *P≤0.05, **** P≤0.0001.
# ERα [4] = target: T3, ERα; test: Competitive [3H]-E2 binding in U2OS-ERα cells; parameters: expressed in transfected cells; host or cells: U2OS
# ERα [5] = target: T3, ERα; test: NKG2E-TK-Luc transfection assay, U2OS cells cotransfected with ERα; format: cell-based; parameters: expressed in transfected cells; host or cells: U2OS
# Description: FIG. 7a-7e. […] (C) U2OS cells cotransfected with GRE-TK-Luc and human (h) GR and treated with 10 nM of dexamethasone (Dex) and 5 μM of 2′, 3′, 4′-THC alone or in combination for 24 hours. (D) U2OS cells cotransfected with human tyrosine aminotransferase (TATS)-luciferase reporter gene and hAR and treated with 10 nM of dihydrotestosterone (DHT) and 5 μM of 2′, 3′, 4′-THC alone or in combination for 24 hours. (E) U2OS cells cotransfected with TAT3-luciferase reporter gene and hPR-B and treated with 10 nM of progesterone (Prog) and 5 μM of 2′, 3′, 4′-THC alone or in combination for 24 hours. After transfection, luciferase activities were measured as described in the Methods. RLU is relative light units and the data shown are mean±SEM.
# (FIGS. 6a, 6b) Gene expression of (FIG. 6a) KRT73 and (FIG. 6b) NKG2E in U2OS-ERα cells treated with 10 nM estradiol, 5 μM 2′, 3′, 4′-THC, 1μM ICI alone or in combination for 24 hours. […] Error bars are ±SEM. […] After transfection, luciferase activities were measured as described in the Methods. RLU is relative light units and the data shown are mean ±SEM. (FIG. 6c). […] After transfection, luciferase activities were measured as described in the Methods. RLU is relative light units and the data shown are mean ±SEM (FIG. 6d).
# T3 sequence (P03372 whole entry): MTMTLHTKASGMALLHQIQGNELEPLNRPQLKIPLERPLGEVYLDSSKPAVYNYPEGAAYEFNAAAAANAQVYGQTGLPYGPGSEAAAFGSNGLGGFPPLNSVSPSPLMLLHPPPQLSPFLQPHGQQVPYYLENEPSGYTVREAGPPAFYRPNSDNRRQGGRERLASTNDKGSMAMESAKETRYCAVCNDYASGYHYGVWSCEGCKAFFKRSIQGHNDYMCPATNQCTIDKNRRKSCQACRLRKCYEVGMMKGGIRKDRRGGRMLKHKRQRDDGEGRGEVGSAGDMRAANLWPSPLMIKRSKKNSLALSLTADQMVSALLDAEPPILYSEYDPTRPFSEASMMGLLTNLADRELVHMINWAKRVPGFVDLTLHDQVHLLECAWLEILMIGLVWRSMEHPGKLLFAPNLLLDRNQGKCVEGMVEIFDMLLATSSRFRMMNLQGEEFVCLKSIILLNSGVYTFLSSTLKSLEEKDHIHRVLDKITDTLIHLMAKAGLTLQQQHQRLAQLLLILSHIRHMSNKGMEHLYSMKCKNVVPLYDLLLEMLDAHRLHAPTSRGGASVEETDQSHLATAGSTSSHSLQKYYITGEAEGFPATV
structure (smiles),measurement,setting,value
"O=C(/C=C/c1ccccc1)c1ccc(O)c(O)c1O [2′, 3′, 4′-THC, 2′, 3′, 4′-trihydroxychalcone]",effect on proliferation induced by E2,"MCF-7 cells [1]; 1, 5 and 10 μM, dose-dependent",blocked
same,"MCF-7 cell proliferation, compound alone",MCF-7 cells [1],no effect
same,melting temperature of ERα LBD,ERα LBD,no effect
same,synergy with receptor agonist,hAR,no synergy
same,effect on E2-treated cells by DNA content / cell cycle,MCF-7 cells [2]; 24 hours,anti-proliferative action; also recorded: G1 cell cycle arrest
same,IC50,"MCF-7 cells [2]; read-out: IC50 for inhibition, G1 phase (cellular DNA content)",2900 nM
same,IC50,"MCF-7 cells [2]; read-out: IC50 for inhibition, S-phase (cellular DNA content)",2600 nM
same,luciferase activity with E2,"ERα [3]; ERα, 5 μM chalcone + 10 nM E2, 24 hours",synergistic increase
same,"activity on ERE luciferase, compound alone","ERα [3]; U2OS cells transfected with ERα, 5 μM, 24 hours",inactive
same,competing concentration relative to concentration required for synergy,ERα [4],100 fold
same,increase of [3H]-E2 binding,"ERα [4]; 5 or 10 μM, 5 nM [3H]-E2, 1 h, 37°C",~2 fold
same,IC50 relative to E2 (higher),ERα [4]; U2OS-ERα cells,"approximately 10,000 fold"
same,concentration at which the compound competes for [3H]-E2 binding,"ERα [4]; no competition below, 5 nM [3H]-E2",100 µM
same,response of NKG2E-TK-Luc with E2,"ERα [5]; 1 μM 2′,3′,4′-THC",synergistic response
same,response of NKG2E-TK-Luc with E2,"ERα [5]; 5 μM 2′,3′,4′-THC",maximal response
same,"synergistic activation of NKG2E-TK-Luc in combination with E2, tamoxifen or raloxifene","ERα [5]; 5 μM, 10 nM E2, 1 μM tamoxifen, 1 μM raloxifene, 24 hours",synergistic activation only with E2
same,"activation of NKG2E-TK-Luc, compound alone",ERα [5]; 24 hours,No activation

# — patent US20190008797A1, “ESTROGEN RECEPTOR ALPHA COLIGANDS, AND METHODS OF USE THEREOF” (priority 2016, published 2019)
